Source: publication PMC9268414, “Screening an In-House Isoquinoline Alkaloids Library for New Blockers of Voltage-Gated Na^+ Channels Using Voltage Sensor Fluorescent Probes: Hits and Biases” (Molecules, 2022)
Values joined by “and” are separate entries in the source; they are usually repeats but may differ in a detail not shown here. Equal entries are not always repeated.

How the values were obtained:
[1] = test system: NaV channels endogenously expressed in GH3b6 cells; assay: FRET voltage sensor probe (VSP) assay of BTX-induced depolarization in GH3b6 cells; type: cell-based, rat; settings: for Inhibitory Effects (%) on BTX-induced VSP signal (screening): IA at 10–50 µg/mL co-incubated with 1 µM BTX; for Inhibitory Effects (%) on BTX-induced VSP signal (screening) / Maximum of Inhibition of BTX-evoked VSP signal / IC50: GH3b6 cells; for Maximum of Inhibition of BTX-evoked VSP signal / IC50: BTX 1 µM, n = 6; for Maximum of Inhibition of BTX-evoked VSP signal: % printed only; for IC50: read-out: IC50 (µM), inhibition of BTX-evoked VSP signal
human NaV1.3 channel = human NaV1.3 channel (Homo sapiens, UniProt Q9NY46); assay: ANG-2 intracellular Na+ fluorescent assay in HEK293-hNaV1.3 cells; type: cell-based
hNaV1.2 channel = molecular target: T1, hNaV1.2 channel (Homo sapiens, UniProt Q99250); assay: Automated patch-clamp, Na+ currents in HEK293-hNaV1.2 cells; type: cell-based; settings: for Effect on Na+ currents elicited by hNaV1.2: HEK293-hNaV1.2
T1 construct: expressed in transfected cells
T1 sequence (Q99250 whole entry): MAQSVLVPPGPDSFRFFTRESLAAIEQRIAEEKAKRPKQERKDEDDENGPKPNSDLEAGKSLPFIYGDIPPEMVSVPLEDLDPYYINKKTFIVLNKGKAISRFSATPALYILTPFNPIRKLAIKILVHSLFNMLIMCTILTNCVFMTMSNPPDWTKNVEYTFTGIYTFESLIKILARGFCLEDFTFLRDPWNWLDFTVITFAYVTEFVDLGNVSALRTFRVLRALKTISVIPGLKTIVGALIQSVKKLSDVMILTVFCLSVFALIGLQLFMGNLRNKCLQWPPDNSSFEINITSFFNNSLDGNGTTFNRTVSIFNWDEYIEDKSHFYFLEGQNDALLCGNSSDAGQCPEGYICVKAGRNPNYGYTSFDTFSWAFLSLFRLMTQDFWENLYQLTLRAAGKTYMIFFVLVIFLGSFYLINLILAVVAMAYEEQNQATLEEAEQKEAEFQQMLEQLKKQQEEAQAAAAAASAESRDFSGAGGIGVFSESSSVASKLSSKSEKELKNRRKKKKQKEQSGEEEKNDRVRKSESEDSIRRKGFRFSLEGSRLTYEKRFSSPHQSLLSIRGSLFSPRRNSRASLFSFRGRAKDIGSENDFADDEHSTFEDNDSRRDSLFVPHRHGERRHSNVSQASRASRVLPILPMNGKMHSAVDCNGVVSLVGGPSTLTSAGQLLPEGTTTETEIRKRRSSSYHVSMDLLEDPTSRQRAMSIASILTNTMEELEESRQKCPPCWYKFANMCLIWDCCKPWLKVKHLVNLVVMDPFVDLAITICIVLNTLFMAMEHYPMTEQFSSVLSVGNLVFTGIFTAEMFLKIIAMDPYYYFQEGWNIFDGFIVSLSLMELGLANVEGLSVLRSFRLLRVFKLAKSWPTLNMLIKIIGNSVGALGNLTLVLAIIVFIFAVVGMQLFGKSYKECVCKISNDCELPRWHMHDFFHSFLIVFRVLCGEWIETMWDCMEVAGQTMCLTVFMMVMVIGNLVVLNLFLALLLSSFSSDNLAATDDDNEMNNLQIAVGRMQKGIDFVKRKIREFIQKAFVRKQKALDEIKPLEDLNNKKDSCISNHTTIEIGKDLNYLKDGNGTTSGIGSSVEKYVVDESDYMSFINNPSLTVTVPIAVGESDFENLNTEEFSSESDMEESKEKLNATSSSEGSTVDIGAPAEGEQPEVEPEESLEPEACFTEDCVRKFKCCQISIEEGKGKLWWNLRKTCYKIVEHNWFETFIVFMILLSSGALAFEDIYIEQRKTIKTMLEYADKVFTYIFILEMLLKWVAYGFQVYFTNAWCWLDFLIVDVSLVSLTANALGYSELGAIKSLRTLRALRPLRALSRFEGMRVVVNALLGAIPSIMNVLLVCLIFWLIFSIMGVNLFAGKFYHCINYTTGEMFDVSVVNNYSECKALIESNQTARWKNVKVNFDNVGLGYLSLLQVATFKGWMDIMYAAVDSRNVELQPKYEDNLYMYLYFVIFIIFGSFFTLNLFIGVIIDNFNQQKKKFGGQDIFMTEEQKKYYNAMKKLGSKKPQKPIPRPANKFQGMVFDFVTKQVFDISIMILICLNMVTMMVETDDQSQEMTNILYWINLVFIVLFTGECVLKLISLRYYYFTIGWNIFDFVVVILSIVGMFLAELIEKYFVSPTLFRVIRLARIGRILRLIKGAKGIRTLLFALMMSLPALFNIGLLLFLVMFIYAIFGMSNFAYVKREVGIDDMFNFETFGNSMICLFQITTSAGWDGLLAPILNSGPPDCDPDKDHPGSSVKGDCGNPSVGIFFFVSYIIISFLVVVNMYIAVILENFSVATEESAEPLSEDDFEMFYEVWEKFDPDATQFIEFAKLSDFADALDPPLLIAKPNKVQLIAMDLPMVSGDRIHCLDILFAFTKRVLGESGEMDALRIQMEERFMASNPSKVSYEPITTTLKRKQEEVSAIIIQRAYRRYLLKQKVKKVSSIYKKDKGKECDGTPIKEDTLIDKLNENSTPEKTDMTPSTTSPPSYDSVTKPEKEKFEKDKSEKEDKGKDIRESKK
Experimental: (§1) GH3b6 cells are a subclone of the GH3 pituitary cell line and were a generous gift from Dr. Françoise Macari (IGF, Montpellier, France). GH3b6 cells were cultivated from passage 14 until passage 32 at 37 °C/5% CO2 in Dubelcco’s Modified Eagle Medium (DMEM)/F12 (Lonza, Basel, Switzerland), supplemented with 10% FBS (Lonza, Basel, Switzerland), 1 mM L-glutamine, and 1 mM penicillin and streptomycin solution. For the fluorescence assay, the GH3b6 cells were seeded in black-walled, clear-bottom, 96-well, tissue culture-treated, and sterile imaging plates (Corning Hazebrouck, France), at a density of 10,000 cells per well, and incubated for 24 h before starting the experiment. The human Nav1.3 (hNav1.3) channel-expressing cell line (HEK293) used in this work was a generous gift from Massimo Mantegazza (IPMC, Nice, France). HEK293-hNaV1.3 cells were cultivated from passage 20 until passage 35 at 37 °C/5% CO2 in a DMEM high glucose medium (4.5 g/l), supplemented with 10% FBS, pyruvate, L-glutamine, and penicillin and streptomycin solution, each one at 1 mM, completed with 800 µg/mL geneticin G418. For the fluorescence assays, the cells were plated at a density of 50,000 cells per well in black-walled, clear-bottom, 96-well plates and then cultured at 37 °C and 5% CO2 for 24 h before the experiments. HEK293 stably expressing hNaV1.2 and hNaV1.6 were cultivated in the same conditions mentioned above for the HEK293-hNaV1.3 cells. For the automated patch-clamp experiments, cells were passaged from 24 to 48 h prior to the experiment and replated in the appropriate quantity to reach 50–70% confluence. For electrophysiological recordings, cells were detached with trypsin-EDTA and diluted in a culture medium. Then, the cells were centrifuged at 800 rpm for 4 min and resuspended (~300,000 cells/mL) in a patch-clamp extracellular solution.
(§2) Whole-cell recordings were used to investigate the effects of oxostephanine, liriodenine, thalmiculine, bebeerine, and protopine on HEK293 cells stably expressing the hNav1.2, hNav1.3, and hNav1.6 channels. Automated patch-clamp recordings were performed using the SyncroPatch 384PE from Nanion (München, Germany). Chips with a single hole (n = 384, series resistance 3.93 ± 1.19 MΩ) were used for HEK293 cell recordings. Pulse generation and data collection were performed with the PatchControl384 v1.9.7 software (Nanion) and the Biomek interface (Beckman Coulter). Whole-cell recordings were conducted according to the recommended procedures of Nanion. The cells were stored in a cell hotel reservoir at 10 °C, with a shaking speed of 60 RPM. After initiating the experiment, cell catch, sealing, whole-cell formation, liquid application, recording, and data acquisition were all performed sequentially and automatically. The intracellular solution contained (in mM): 10 CsCl, 110 CsF, 10 NaCl, 10 EGTA, and 10 HEPES (pH 7.2, osmolarity 280 mOsm), and the extracellular solution contained (in mM): 60 NMDG, 80 NaCl, 4 KCl, 2 CaCl2, 1 MgCl2, 5 Glucose, and 10 HEPES (pH 7.4 (NaOH), osmolarity 280 ± 3 mOsm). Whole-cell experiments were performed at a holding potential of −100 mV at room temperature (18–22 °C). Currents were sampled at 20 kHz. For pharmacological assays, alkaloid solutions were prepared at 30 µM in the extracellular solution supplemented with 0.3% bovine serum albumin and distributed in 384-well compound plates according to a pre-established plate plan. This distribution within compound plates could not be randomized since it would then excessively complexify the methods of analyses. The working compound solution was diluted 3 times in the patch-clamp recording well by adding from 30 to 60 µL of the external solution to reach the final reported concentration and the test volume of 90 µL. The effects of IA (10 µM) or of BTX (1 µM) were measured at the end of a 10 min application time. Activation curves were built by depolarizations lasting for 2000 ms, from −130 mV to 40 mV, using 5 mV increment steps. […]

hNaV1.3 channel = molecular target: T2, hNaV1.3 channel (Homo sapiens, UniProt Q9NY46); assay: Automated patch-clamp, Na+ currents in HEK293-hNaV1.3 cells; type: cell-based; settings: for Effect on Na+ currents elicited by hNaV1.3: HEK293-hNaV1.3, without BTX
T2 construct: expressed in transfected cells
Experimental: as §1, §2

hNaV1.6 channel = molecular target: T3, hNaV1.6 channel (Homo sapiens, UniProt Q9UQD0); assay: Automated patch-clamp, Na+ currents in HEK293-hNaV1.6 cells; type: cell-based; settings: for inhibition at 10 µM / Change in V1/2 of activation and inactivation vs control / Effect on Na+ currents elicited by hNaV1.6: 10 µM; for Effect on Na+ currents elicited by hNaV1.6: HEK293-hNaV1.6
T3 construct: expressed in transfected cells
T3 sequence (Q9UQD0 whole entry): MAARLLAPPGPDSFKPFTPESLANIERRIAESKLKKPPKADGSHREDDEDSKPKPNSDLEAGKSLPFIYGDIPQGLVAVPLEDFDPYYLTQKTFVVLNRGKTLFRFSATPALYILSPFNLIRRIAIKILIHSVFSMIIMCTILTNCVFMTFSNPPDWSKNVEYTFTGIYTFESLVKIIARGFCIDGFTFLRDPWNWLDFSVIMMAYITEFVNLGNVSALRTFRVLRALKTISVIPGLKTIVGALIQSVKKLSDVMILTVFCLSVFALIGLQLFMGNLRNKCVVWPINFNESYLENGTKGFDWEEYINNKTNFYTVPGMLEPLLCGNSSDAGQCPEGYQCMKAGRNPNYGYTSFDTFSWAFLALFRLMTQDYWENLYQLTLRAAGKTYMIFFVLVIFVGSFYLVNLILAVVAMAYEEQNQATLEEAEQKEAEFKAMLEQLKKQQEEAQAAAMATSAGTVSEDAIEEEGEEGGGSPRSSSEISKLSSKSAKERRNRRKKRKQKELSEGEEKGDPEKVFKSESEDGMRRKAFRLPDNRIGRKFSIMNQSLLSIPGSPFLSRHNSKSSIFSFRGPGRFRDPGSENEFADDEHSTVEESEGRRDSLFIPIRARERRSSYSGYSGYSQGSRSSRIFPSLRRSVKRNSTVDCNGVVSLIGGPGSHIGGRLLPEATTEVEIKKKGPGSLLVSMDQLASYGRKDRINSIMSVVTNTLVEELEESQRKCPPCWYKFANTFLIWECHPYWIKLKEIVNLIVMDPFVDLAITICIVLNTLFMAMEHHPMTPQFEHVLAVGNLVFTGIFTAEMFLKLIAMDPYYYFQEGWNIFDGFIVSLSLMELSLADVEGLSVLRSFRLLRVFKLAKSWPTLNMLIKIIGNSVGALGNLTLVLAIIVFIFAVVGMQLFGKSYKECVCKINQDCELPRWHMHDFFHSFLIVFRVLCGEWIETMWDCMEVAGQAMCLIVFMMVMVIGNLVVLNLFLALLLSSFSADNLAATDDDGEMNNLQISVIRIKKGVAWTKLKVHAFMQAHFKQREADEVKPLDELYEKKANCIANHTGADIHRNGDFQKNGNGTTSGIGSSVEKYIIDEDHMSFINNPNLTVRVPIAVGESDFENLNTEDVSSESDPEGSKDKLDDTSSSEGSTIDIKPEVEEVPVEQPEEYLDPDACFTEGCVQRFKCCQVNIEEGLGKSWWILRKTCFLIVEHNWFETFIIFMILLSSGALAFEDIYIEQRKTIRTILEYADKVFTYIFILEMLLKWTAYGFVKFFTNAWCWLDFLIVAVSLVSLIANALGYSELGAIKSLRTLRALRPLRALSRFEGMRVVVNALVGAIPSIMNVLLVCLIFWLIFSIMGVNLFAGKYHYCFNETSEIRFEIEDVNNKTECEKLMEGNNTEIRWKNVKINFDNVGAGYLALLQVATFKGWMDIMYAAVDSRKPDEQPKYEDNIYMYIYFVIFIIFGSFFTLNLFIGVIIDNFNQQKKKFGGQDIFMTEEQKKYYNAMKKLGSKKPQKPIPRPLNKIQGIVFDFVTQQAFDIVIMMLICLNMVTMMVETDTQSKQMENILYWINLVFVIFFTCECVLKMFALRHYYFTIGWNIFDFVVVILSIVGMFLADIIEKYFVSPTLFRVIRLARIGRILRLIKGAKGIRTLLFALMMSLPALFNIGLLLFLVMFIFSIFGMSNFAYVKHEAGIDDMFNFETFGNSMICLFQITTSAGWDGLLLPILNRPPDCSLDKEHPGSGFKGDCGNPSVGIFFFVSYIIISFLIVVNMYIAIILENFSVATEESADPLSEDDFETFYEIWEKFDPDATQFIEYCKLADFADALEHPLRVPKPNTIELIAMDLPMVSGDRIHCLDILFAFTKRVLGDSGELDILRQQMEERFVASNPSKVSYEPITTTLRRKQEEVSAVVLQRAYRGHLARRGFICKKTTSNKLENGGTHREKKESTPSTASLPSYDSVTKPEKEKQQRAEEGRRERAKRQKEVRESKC
Experimental: as §1, §2

[2] = 10 µM, Vm between −20 mV and 30 mV
[3] = IA at 10 µM, BTX 3 µM, HEK293-hNaV1.3

## COc1ccc2cc1Oc1ccc(cc1)C[C@H]1c3cc(c(OC)cc3CCN1C)Oc1c(OC)c(OC)cc3c1[C@H](C2)N(C)CC3 [IA50, tetrandine]
[1]
  Inhibitory Effects (%) on BTX-induced VSP signal (screening): 78.3%

## COc1cc2c3cc1Oc1cc(ccc1O)CC1c4c(cc(OC)c(O)c4Oc4ccc(cc4)CC3N(C)CC2)CCN1C (stereo not drawn) [IA52, bebeerine]
[1]
  Maximum of Inhibition of BTX-evoked VSP signal: 41.04 ± 3.44%
  IC50: 0.74 ± 0.11 µM
  Inhibitory Effects (%) on BTX-induced VSP signal (screening): 81.9%
Human NaV1.3 channel; IA at 10 µM, BTX 3 µM, HEK293-hNaV1.3, read-out: Inhibition of BTX-induced [Na+]i elevation (ANG-2 signal)
  inhibition at 10 µM: 18 ± 2%
hNaV1.2 channel; [2]
  inhibition at 10 µM: 42 to 50%
hNaV1.2 channel; estimated from inhibition at 10 µM, read-out: IC50 on Na+ currents elicited by hNaV1.2
  IC50: < 10 µM and > 10 µM
hNaV1.2 channel; hNaV1.2, 10 µM
  Change in V1/2 of activation and inactivation vs control: no significant change
hNaV1.2 channel; hNaV1.2, 10 µM bebeerine
  Activation Slope (±SEM): 5.8 ± 0.3 ^1
  Activation V1/2 (±SEM, mV): −29.1 ± 1.1 (n = 36) mV
  Inactivation Slope (±SEM): −8.5 ± 0.3 ^4
  Inactivation V1/2 (±SEM, mV): −62.3 ± 1.1 (n = 21) mV
hNaV1.3 channel; [2]
  inhibition at 10 µM: 60 to 64%
hNaV1.3 channel; 10 µM, at −15 mV
  inhibition at 10 µM: 64 ± 4%
hNaV1.3 channel; hNaV1.3, 10 µM
  Shift in V1/2 activation vs control: −3.6 ± 1.0
hNaV1.3 channel; hNaV1.3, 10 µM bebeerine
  Activation Slope (±SEM): 6.4 ± 0.3 ^2
  Activation V1/2 (±SEM, mV): −26.9 ± 0.7 (n = 51) mV
  Inactivation Slope (±SEM): −8.9 ± 0.3 ^5
  Inactivation V1/2 (±SEM, mV): −60.2 ± 0.9 (n = 26) mV
hNaV1.6 channel; Vm between −20 mV and 30 mV
  inhibition at 10 µM: 70 to 74%
hNaV1.6 channel; at −20 mV
  inhibition at 10 µM: 74 ± 3%
hNaV1.6 channel; estimated from inhibition at 10 µM, read-out: IC50 on Na+ currents elicited by hNaV1.6
  IC50: < 10 µM and > 10 µM
hNaV1.6 channel; hNaV1.6
  Change in V1/2 of activation and inactivation vs control: no significant change
hNaV1.6 channel; hNaV1.6, 10 µM bebeerine
  Activation Slope (±SEM): 7.0 ± 0.3 ^3
  Activation V1/2 (±SEM, mV): −22.1 ± 0.7 (n = 32) mV
  Inactivation Slope (±SEM): −9.0 ± 0.3 ^6
  Inactivation V1/2 (±SEM, mV): −60.2 ± 0.7 (n = 24) mV

## NC1=N[C@H](O)[C@H]2[C@H]3O[C@]4(O)O[C@@H]([C@@H](O)[C@@]2(N1)[C@@H]4O)[C@]3(O)CO [TTX, tetrodotoxin, reference compound]
[1]
  Effect on VSP fluorescence emission ratio induced by BTX: fully abolished
  IC50 of TTX on VSP signal ratio induced by BTX: 0.00858 ± 0.00167 µM
Human NaV1.3 channel
  Inhibition of BTX-induced ANG-2 fluorescence ratio: 92 ± 5%

## gyrocarpusine [IA42]
[1]
  Inhibitory Effects (%) on BTX-induced VSP signal (screening): 78.5%

## protopine [IA69]
[1]
  Maximum of Inhibition of BTX-evoked VSP signal: 64.67 ± 5.50%
  IC50: 3.97 ± 0.1 µM
  Inhibitory Effects (%) on BTX-induced VSP signal (screening): 99.9%
Human NaV1.3 channel; [3]
  Inhibition of BTX-induced [Na+]i elevation (ANG-2 signal): no significant inhibitory effects
hNaV1.2 channel; 10 µM
  Effect on Na+ currents elicited by hNaV1.2: no effects
hNaV1.2 channel; hNaV1.2, 10 µM
  Change in V1/2 of activation and inactivation vs control: ns
hNaV1.3 channel; 10 µM
  Effect on Na+ currents elicited by hNaV1.3: no effects
hNaV1.3 channel; hNaV1.3, 10 µM
  Change in V1/2 of activation and inactivation vs control: ns
hNaV1.6 channel
  Effect on Na+ currents elicited by hNaV1.6: no effects
hNaV1.6 channel; hNaV1.6
  Change in V1/2 of activation and inactivation vs control: ns

## thalmiculine [IA49]
[1]
  Maximum of Inhibition of BTX-evoked VSP signal: 31.07 ± 4.04%
  IC50: 0.38 ± 0.19 µM
  Inhibitory Effects (%) on BTX-induced VSP signal (screening): 91.1%
Human NaV1.3 channel; [3]
  Inhibition of BTX-induced [Na+]i elevation (ANG-2 signal): no significant inhibitory effects
hNaV1.2 channel; 10 µM
  Effect on Na+ currents elicited by hNaV1.2: no effects
hNaV1.2 channel; hNaV1.2, 10 µM
  Change in V1/2 of activation and inactivation vs control: ns
hNaV1.3 channel; 10 µM
  Effect on Na+ currents elicited by hNaV1.3: no effects
hNaV1.3 channel; hNaV1.3, 10 µM
  Change in V1/2 of activation and inactivation vs control: ns
hNaV1.6 channel
  Effect on Na+ currents elicited by hNaV1.6: no effects
hNaV1.6 channel; hNaV1.6
  Change in V1/2 of activation and inactivation vs control: ns
